In article PMC4198483 (Cancer cell, 2014):
Substitutions are numbered along the chain they refer to.

Assays:
TIPE3 (TNFAIP8L3) [1] = biological target: T1, TIPE3 (TNFAIP8L3) (Mus musculus, UniProt Q3TBL6); assay: vesicle sedimentation assay; type: binding; settings: 20 µM protein; 1000 µM vesicles of 10% lipid + 90% PC
T1 sequence (Q3TBL6 1-204): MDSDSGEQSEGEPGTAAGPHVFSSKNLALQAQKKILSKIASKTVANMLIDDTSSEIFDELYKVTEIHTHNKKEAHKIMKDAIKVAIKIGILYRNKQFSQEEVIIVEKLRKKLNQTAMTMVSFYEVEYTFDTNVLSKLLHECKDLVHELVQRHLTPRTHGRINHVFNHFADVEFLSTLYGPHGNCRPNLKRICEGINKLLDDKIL

TIPE3 (TNFAIP8L3) [2] = biological target: T2, TIPE3 (TNFAIP8L3) (Mus musculus, UniProt Q3TBL6, K33Q/K34Q/K38Q/K42Q); assay: vesicle sedimentation assay; type: binding; settings: 20 µM protein; 1000 µM vesicles of 10% lipid + 90% PC
T2 sequence (Q3TBL6 1-204 K33Q/K34Q/K38Q/K42Q): T1 sequence (Q3TBL6 1-204) with K33Q, K34Q, K38Q, K42Q

Substance: PtdIns(3,4,5)P3
- % protein bound to vesicles (TIPE3 (TNFAIP8L3) [1]): > 60%

Substance: PtdIns(4,5)P2
- % protein bound to vesicles (TIPE3 (TNFAIP8L3) [2]): ~ 30%
- % protein bound to vesicles (TIPE3 (TNFAIP8L3) [1]): > 60%
